US20240360067A1, “DERIVATIVES OF ITACONIC ACID AND THEIR USE AS ANTI-INFLAMMATORY AGENTS” (Sitryx Therapeutics Limited, priority 2021, published 2024)

Tests used:
[1] = Hepatocyte stability assay, human; assay type: in vitro ADME; details: 10 μM compound, 0.5×10^6 cells/mL, 60 min; for CIint: Human hepatocytes; for half-life at 10 μM: cryo-preserved hepatocytes, read-out: T½
Description: (§1) Defrosted cryo-preserved hepatocytes (viability >70%) were used to determine the metabolic stability of a compound via calculation of intrinsic clearance (CIint; a measure of the removal of a compound from the liver in the absence of blood flow and cell binding). Clearance data are particularly important for in vitro work as they can be used in combination with in vivo data to predict the half-life and oral bioavailability of a drug.
(§2) The metabolic stability in hepatocytes assay involved a time-dependent reaction using both positive and negative controls. The cells must be pre-incubated at 37° C. then spiked with test compound (and positive control); samples taken at pre-determined time intervals were analysed to monitor the change in concentration of the initial drug compound over 60 minutes. A buffer incubation reaction (with no hepatocytes present) acted as a negative control and two cocktail solutions, containing compounds with known high and low clearance values (verapamil/7-hydroxycoumarin and propranolol/diltiazem), acted as positive controls. • 1. The assay was run with a cell concentration of 0.5×10^6 cells/mL in Leibovitz buffer. • 2. All compounds and controls were run in duplicate. • 3. Compound concentration was 10 μM. • 4. All compounds and controls were incubated with both cells and buffer to show turnover is due to hepatic metabolism. • 5. All wells on the incubation plate had 326.7 μL of either cells or buffer added. • 6. Prior to assay, cell and buffer-only incubation plates were preincubated for 10 mins at 37° C. • 7. The assay was initiated by adding compounds, 3.3 μL of 1 mM in 10% DMSO-90% Buffer; final DMSO concentration is 0.1%. • 8. Samples were taken at regular timepoints (0, 5, 10, 20, 40, 60 min) until 60 mins. • 9. Sample volume was 40 μL and added to 160 μL of crash solvent (acetonitrile with internal standard) and stored on ice. • 10. At the end of the assay, the crash plates were centrifuged at 3500 rpm for 20 mins at 4° C. • 11. 80 μL of clear supernatant was removed and mixed with 80 μL of deionised water before being analysed by LC-MS/MS.
(§3) Raw LC-MS/MS data were exported to, and analysed in, Microsoft Excel for determination of intrinsic clearance. The percentage remaining of a compound was monitored using the peak area of the initial concentration as 100%. Intrinsic clearance and half-life values were calculated using a graph of the natural log of percentage remaining versus the time of reaction in minutes.

[2] = tested on: IL-6; assay: THP-1 AlphaLISA IL-6 cytokine assay (PMA-differentiated THP-1, LPS then nigericin); assay type: cell-based; details: Homo sapiens; differentiated THP-1 cells; 30 min pre-incubation, LPS 24 hr, nigericin 1 hour
Description: (§4) Measuring Inhibitory Effects on IL-1β, and IL-6 Cytokine Output from THP-1s
(§5) The cytokine inhibition profiles of compounds of formula (I) were determined in a differentiated THP-1 cell assay. All assays were performed in RPMI-1640 growth medium (Gibco), supplemented with 10% fetal bovine serum (FBS; Gibco), 1% penicillin-streptomycin and 1% sodium pyruvate unless specified otherwise. The IL-1β and IL-6 cytokine inhibition assays were each run in a background of differentiated THP-1 cells as described below. All reagents described were from Sigma-Aldrich unless specified otherwise. Compounds were prepared as 10 mM DMSO stocks.
(§6) THP-1 cells were expanded as a suspension up to 80% confluence in appropriate growth medium. Cells were harvested, suspended, and treated with an appropriate concentration of phorbol 12-myristate 13-acetate (PMA) over a 72 hr period (37° C./5% CO2).
(§7) Following 72 hrs of THP-1 cell incubation, cellular medium was removed and replaced with fresh growth media containing 1% of FBS. Working concentrations of compounds were prepared separately in 10% FBS treated growth medium and pre-incubated with the cells for 30 minutes (37° C./5% CO2). Following the 30 minute compound pre-incubation, THP-1s were treated with an appropriate concentration of LPS and the THP-1s were subsequently incubated for a 24 hr period (37° C./5% CO2). An appropriate final concentration of Nigericin was then dispensed into the THP-1 plates and incubated for 1 hour (37° C./5% CO2) before THP-1 supernatants were harvested and collected in separate polypropylene 96-well holding plates.
(§8) Reagents from each of the IL-1β and IL-6 commercial kits (Perkin Elmer) were prepared and run according to the manufacturer's instructions. Subsequently, fluorescence signal detection in a microplate reader was measured (EnVision® Multilabel Reader, Perkin Elmer).
(§9) Percentage inhibition was calculated per cytokine by normalizing the sample data to the high and low controls used within each plate (+/−LPS respectively).

[3] = tested on: IL-1β; assay: THP-1 AlphaLISA IL-1β cytokine assay (PMA-differentiated THP-1, LPS then nigericin); assay type: cell-based; details: 30 min pre-incubation, LPS 24 hr, nigericin 1 hour
Description: as §4, §5, §6, §7, §8, §9

[4] = tested on: NRF2; assay: NRF2 activation assay (DiscoverX PathHunter NRF2 translocation kit, U2OS cells); assay type: cell-based; details: Homo sapiens; for Emax: U2OS, normalised to dimethyl fumarate high control; for EC50: U2OS PathHunter cells, 6 hours
[5] = Hepatocyte stability assay, mouse; assay type: in vitro ADME; details: 10 μM compound, 0.5×10^6 cells/mL, 60 min; for CIint: Mouse hepatocytes; for half-life at 10 μM: cryo-preserved hepatocytes, read-out: T½
Description: as §1, §2, §3

[6] = Homo sapiens, THP-1, differentiated THP-1 cells

Compound	CIint [1]	half-life at 10 μM [1]	IC50 [2]	IC50 [3, 6]	IC50 ([3]; differentiated THP-1 cells)	EC50 ([4]; +GSH)	EC50 ([4]; −GSH)	CIint [5]	half-life at 10 μM [5]	Emax ([4]; +GSH)	Emax ([4]; −GSH)	IC50 ([3]; Homo sapiens, differentiated THP-1 cells)
C=C(CC(=O)NCCN1CCOCC1)C(=O)OC1(c2ccc(C(F)(F)F)cc2)CCC1 [Example 13, 1-(4-(trifluoromethyl)phenyl)cyclobutyl 2-methylene-4-((2-morpholinoethyl)amino)-4-oxobutanoate]	126 μL min^−1 10^−6 cells	12 min	8.1 µM	6.5 µM	8.5 µM	48 µM	38.8 µM	516 μL min^−1 10^−6 cells	4 min	84%	174%	
C=C(CC(=O)NCc1ncc[nH]1)C(=O)OC1(c2ccc(C(F)(F)F)cc2)CCC1 [Example 15, 1-(4-(trifluoromethyl)phenyl)cyclobutyl 4-(((1H-imidazol-2-yl)methyl)amino)-2-methylene-4-oxobutanoate]	92 μL min^−1 10^−6 cells	14 min	7.3 µM	5.3 µM		51.3 µM	26.3 µM	508 μL min^−1 10^−6 cells	3 min	86%	131%	
C=C(CC(=O)NCCO)C(=O)OC1(c2ccc(C(F)(F)F)cc2)CCC1 [Example 19, 1-(4-(trifluoromethyl)phenyl)cyclobutyl 4-((2-hydroxyethyl)amino)-2-methylene-4-oxobutanoate]	32 μL min^−1 10^−6 cells	48 min	3.8 µM	2.5 µM		50.7 µM	40.2 µM	161 μL min^−1 10^−6 cells	13 min	102%	210%	
C=C(CC(=O)NCC(N)=O)C(=O)OC1(c2ccc(C(F)(F)F)cc2)CCC1 [Example 21, 1-(4-(trifluoromethyl)phenyl)cyclobutyl 4-((2-amino-2-oxoethyl)amino)-2-methylene-4-oxobutanoate]	37 μL min^−1 10^−6 cells	42 min	3.9 µM	7.2 µM		55 µM	38 µM	100 μL min^−1 10^−6 cells	21 min	86%	184%	
C=C(CC(=O)OCC(=O)O)C(=O)OC1(c2ccc(C(F)(F)F)cc2)CCC1 [Example 22, 2-((3-((1-(4-(trifluoromethyl)phenyl)cyclobutoxy)carbonyl)but-3-enoyl)oxy)acetic acid]	7 μL min^−1 10^−6 cells	204 min	> 31.6 µM			41.1 µM	40 µM	392 μL min^−1 10^−6 cells	4 min	45%	100%	15.2 µM
C/C(=C\C(=O)O)C(=O)OC1(c2ccc(C(F)(F)F)cc2)CCC1 [Example 23, 3-methyl-4-oxo-4-(1-(4-(trifluoromethyl)phenyl)cyclobutoxy)but-2-enoic acid]	<3 μL min^−1 10^−6 cells	> 460 min	> 100 µM	4 µM		> 100 µM	2.8 µM	<3 μL min^−1 10^−6 cells	> 460 min	4%	39%	

Second part, led by results:

CIint [1]	half-life at 10 μM [1]	IC50 [2]	IC50 [3, 6]	IC50 ([3]; differentiated THP-1 cells)	EC50 ([4]; +GSH)	EC50 ([4]; −GSH)	CIint [5]	half-life at 10 μM [5]	Compound	Emax ([4]; +GSH)	Emax ([4]; −GSH)	IC50 ([3]; Homo sapiens, differentiated THP-1 cells)
40 μL min^−1 10^−6 cells	38 min	3.9 µM	5.2 µM		49.4 µM	14.6 µM	108 μL min^−1 10^−6 cells	12 min	C=C(CC(=O)NC1CCN(C)CC1)C(=O)OC1(c2ccc(C(F)(F)F)cc2)CCC1 [Example 14, 1-(4-(trifluoromethyl)phenyl)cyclobutyl 2-methylene-4-((1-methylpiperidin-4-yl)amino)-4-oxobutanoate]	95%	80%	
31 μL min^−1 10^−6 cells	52 min	3.8 µM	5.2 µM		39.4 µM	14.7 µM	92 μL min^−1 10^−6 cells	14 min	C=C(CC(=O)NC1CS(=O)(=O)C1)C(=O)OC1(c2ccc(C(F)(F)F)cc2)CCC1 [Example 18, 1-(4-(trifluoromethyl)phenyl)cyclobutyl 4-((1,1-dioxidothietan-3-yl)amino)-2-methylene-4-oxobutanoate]	70%	90%	
85 μL min^−1 10^−6 cells	18 min	2.6 µM	2.9 µM		31.4 µM	14.4 µM	668 μL min^−1 10^−6 cells	3 min	C=C(CC(=O)NC1CCOCC1)C(=O)OC1(c2ccc(C(F)(F)F)cc2)CCC1 [Example 20, 1-(4-(trifluoromethyl)phenyl)cyclobutyl 2-methylene-4-oxo-4-((tetrahydro-2H-pyran-4-yl)amino)butanoate]	63%	101%	
